Laboratory results from US11279703B2, “Fused pyrimidine compounds as BRD4 and JAK2 dual inhibitors and methods for use thereof” (APTOSE BIOSCIENCES INC., priority 2016, dated 2022).
Like-named read-outs stand apart in the source and are kept apart here.

Assays:
[1] = target: BRD4-BD1 (Homo sapiens (Human), UniProt O60885); experiment: AlphaLisa bromodomain binding assay, BRD4-BD1
[2] = target: JAK2 (Homo sapiens (Human), UniProt O60674); experiment: HTRF kinase assay, JAK2; assay type: biochemical
Chain of JAK2 (O60674 whole entry): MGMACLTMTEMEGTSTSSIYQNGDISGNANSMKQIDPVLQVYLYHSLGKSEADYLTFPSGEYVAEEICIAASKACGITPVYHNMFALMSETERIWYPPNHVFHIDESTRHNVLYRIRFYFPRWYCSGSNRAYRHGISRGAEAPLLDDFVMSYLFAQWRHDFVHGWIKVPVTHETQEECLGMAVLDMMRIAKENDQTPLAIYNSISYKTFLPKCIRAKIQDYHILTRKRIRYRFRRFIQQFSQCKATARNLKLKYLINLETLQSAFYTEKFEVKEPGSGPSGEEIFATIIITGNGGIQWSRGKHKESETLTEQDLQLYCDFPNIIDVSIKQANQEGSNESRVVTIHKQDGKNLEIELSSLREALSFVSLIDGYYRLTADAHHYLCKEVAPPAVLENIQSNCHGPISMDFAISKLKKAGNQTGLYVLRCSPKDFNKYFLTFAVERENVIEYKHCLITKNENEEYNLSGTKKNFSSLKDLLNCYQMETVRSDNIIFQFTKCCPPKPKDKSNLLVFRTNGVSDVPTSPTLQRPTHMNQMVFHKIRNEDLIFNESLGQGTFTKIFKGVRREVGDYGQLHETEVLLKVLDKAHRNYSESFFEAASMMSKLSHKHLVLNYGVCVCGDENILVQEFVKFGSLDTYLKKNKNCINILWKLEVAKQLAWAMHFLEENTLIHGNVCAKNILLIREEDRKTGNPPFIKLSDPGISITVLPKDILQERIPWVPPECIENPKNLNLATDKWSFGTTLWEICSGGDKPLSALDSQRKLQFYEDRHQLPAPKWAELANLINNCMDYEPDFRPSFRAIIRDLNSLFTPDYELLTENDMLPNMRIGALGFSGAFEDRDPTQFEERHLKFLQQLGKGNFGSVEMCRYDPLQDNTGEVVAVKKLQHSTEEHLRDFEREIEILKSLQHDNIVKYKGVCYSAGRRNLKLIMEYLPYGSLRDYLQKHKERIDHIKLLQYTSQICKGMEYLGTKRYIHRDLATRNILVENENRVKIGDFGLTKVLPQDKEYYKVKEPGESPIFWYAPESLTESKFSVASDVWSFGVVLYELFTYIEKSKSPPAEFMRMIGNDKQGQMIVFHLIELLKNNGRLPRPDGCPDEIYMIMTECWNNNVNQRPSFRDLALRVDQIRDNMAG

[3] = Table 6, read-out: BRD4(1) IC50

SMILES	IC50 [1, 3] [nM]	IC50 ([2]; Table 6) [nM]	IC50 ([1]; Table 5, read-out: BRD4 IC50) [nM]	IC50 ([2]; Table 5) [nM]
CN1CCN(c2ccc(Nc3ncc4ccn(-c5cccc(NS(=O)(=O)C6CC6)c5)c4n3)cc2)CC1 [drawing 356]	1800	8	–	–
CN1CCN(c2ccc(Nc3ncc4ccn(-c5ccc(F)c(NS(=O)(=O)C6CC6)c5)c4n3)cc2)CC1	1490	15.3	–	–
CNCCOc1ccc(Nc2ncc3ccn(-c4cccc(NS(=O)(=O)C(C)(C)C)c4)c3n2)cc1F [drawing 460]	2300	50	–	–
CN(c1cccc(Nc2nc(NC3CCNCC3)nc3sccc23)c1)S(=O)(=O)C(C)(C)C	870	10000	–	–
CC(=O)N1CCC(c2ccc(Nc3ncc4ccn(-c5cccc(NS(=O)(=O)C6CC6)c5)c4n3)cc2)CC1	10000	140	–	–
CC(C)(C)S(=O)(=O)Nc1cccc(-n2ccc3cnc(Nc4ccc(N5CCOCC5)cc4)nc32)c1	5530	24.4	–	–
CC(C)(C)S(=O)(=O)Nc1cc(-n2ccc3cnc(Nc4ccc(N5CCNC(=O)C5)c(F)c4)nc32)ccc1F	295	142	–	–
O=C(NC1CCNCC1)c1ccc(Nc2ncc3ccn(-c4cccc(NS(=O)(=O)C5CC5)c4)c3n2)cc1F	1590	69	–	–
CN1CCN(c2ccc(Nc3nc(-n4ccc(C(=O)NC5CC5)c4)c4ccsc4n3)cc2F)CC1	10000	10000	–	–
CNC1CCN(c2ccc(Nc3ncc4scc(-c5ccc(F)c(NS(=O)(=O)C(C)(C)C)c5)c4n3)cc2F)CC1 [drawing 459]	308	21	–	–
O=S(=O)(Nc1cccc(-n2ccc3cnc(Nc4ccc(N5CCNCC5)cc4)nc32)c1)C1CC1 [drawing 307]	1350	5	–	–
CN(C)C1CCN(c2ccc(Nc3ncc4ccn(-c5cccc(NS(=O)(=O)C(C)(C)C)c5)c4n3)cc2)CC1 [drawing 75]	–	–	173	7.3
CN1CCN(c2ccc(Nc3ncc4scc(-c5cccc(NS(=O)(=O)C(C)(C)C)c5)c4n3)cc2F)CC1	393	18	–	–
CC(C)(C)S(=O)(=O)Nc1cccc(-n2ccc3cnc(Nc4ccc5c(c4)CC4CNCCN54)nc32)c1 (stereo not shown) [drawing 404]	393	18	–	–
CNCCNc1ccc(Nc2ncc3ccn(-c4cccc(NS(=O)(=O)C(C)(C)C)c4)c3n2)cc1	407	24	–	–
CN1CCN(C(=O)Cc2ccc(Nc3ncc4ccn(-c5cccc(NS(=O)(=O)C(C)(C)C)c5)c4n3)cc2)CC1	916	176	–	–
COc1cc(Nc2ncc3ccn(-c4ccc(F)c(NS(=O)(=O)C(C)(C)C)c4)c3n2)ccc1N1CCN(C)CC1	272	90	–	–
CC(=O)N1CCC(c2ccc(Nc3ncc4ccn(-c5cccc(NS(=O)(=O)C(C)(C)C)c5)c4n3)cc2)CC1	10000	456	–	–
CN1CCN(C(=O)Cc2ccc(Nc3ncc4ccn(-c5ccc(F)c(NS(=O)(=O)C(C)(C)C)c5)c4n3)cc2)CC1	643	239	–	–
CN1CCC(NC(=O)c2ccc(Nc3ncc4ccn(-c5ccc(F)c(NS(=O)(=O)C(C)(C)C)c5)c4n3)cc2F)CC1 [drawing 335]	94	360000	–	–
CC(C)(C)S(=O)(=O)Nc1cccc(-n2ccc3cnc(Nc4ccc(N5CCNCC5)c(F)c4)nc32)c1 [drawing 431]	248	9.6	–	–
CC(C)(C)S(=O)(=O)Nc1cc(-n2ccc3cnc(Nc4ccc(C5CCNCC5)cc4)nc32)ccc1F	475	1600	–	–
CNC1CCN(c2ccc(Nc3ncc4ccn(-c5cccc(NS(=O)(=O)C(C)(C)C)c5)c4n3)cc2F)CC1	357	6	–	–

Further compounds by falling IC50 [1, 3], results first:

IC50 [1, 3] [nM]	IC50 ([2]; Table 6) [nM]	IC50 ([1]; Table 5, read-out: BRD4 IC50) [nM]	IC50 ([2]; Table 5) [nM]	SMILES
5800	10000	–	–	CC1CNCCC1Nc1nc(Nc2ccc3c(c2)N(S(=O)(=O)C(C)(C)C)CC3)c2ccsc2n1 (stereo not shown)
5160	10000	–	–	COc1nc(Nc2ccc(N3CCN(C)CC3)cc2)nc2c1ccn2-c1cccc(NS(=O)(=O)C(C)(C)C)c1
1500	103	–	–	CCC1(S(=O)(=O)Nc2cc(-n3ccc4cnc(Nc5ccc(N6CCN(C)CC6)c(F)c5)nc43)ccc2F)CC1
1400	4.7	–	–	CCC1(S(=O)(=O)Nc2cccc(-n3ccc4cnc(Nc5ccc(N6CCC(N(C)C)CC6)cc5)nc43)c2)CC1
930	12	–	–	CN1CCN(c2ccc(Nc3ncc4ccn(-c5cccc(NS(=O)(=O)C6(C)CC6)c5)c4n3)cc2)CC1
900	10000	–	–	CN1CCC(Nc2nc(Nc3ccc(Cl)c(NS(=O)(=O)C(C)(C)C)c3)c3sccc3n2)CC1
771	28	–	–	CN1CCN(C(=O)c2ccc(Nc3ncc4ccn(-c5cccc(NS(=O)(=O)C(C)(C)C)c5)c4n3)cc2)CC1
766	5	–	–	CC(C)(C)S(=O)(=O)Nc1cccc(-c2csc3cnc(Nc4cc(F)c5c(c4)CC4CNCCN54)nc23)c1 (stereo not shown)
722	11	–	–	Cc1cc(Nc2ncc3ccn(-c4cccc(NS(=O)(=O)C(C)(C)C)c4)c3n2)ccc1N1CCN(C)CC1
451	6	–	–	O=S(=O)(Nc1cccc(-n2ccc3cnc(Nc4ccc(N5CCNCC5)cc4)nc32)c1)C1CC1 [drawing 320]
406	64	–	–	CC(C)(C)S(=O)(=O)Nc1cccc(-n2ccc3cnc(Nc4ccc(CC(=O)NCCN)cc4)nc32)c1
372	177	–	–	CN1CCC(NC(=O)c2ccc(Nc3ncc4ccn(-c5ccc(F)c(NS(=O)(=O)C(C)(C)C)c5)c4n3)cc2)CC1
316	9.3	–	–	Cc1cnc(Nc2ccc(N3CCN(C)CC3)cc2)nc1Nc1cccc(NS(=O)(=O)C(C)(C)C)c1 [drawing 375]
315	10000	–	–	CN1CCC(Nc2nc(Nc3ccc4c(c3)N(S(=O)(=O)C(C)(C)C)CC4)c3ccsc3n2)CC1 [drawing 407]
260	4170	–	–	CC(C)(C)S(=O)(=O)Nc1cccc(Nc2nc(NC3CC4CC3CN4)nc3sccc23)c1 (stereo not shown)
228	36	–	–	CN1CCN(c2ccc(Nc3ncc4scc(-c5ccc(F)c(NS(=O)(=O)C(C)(C)C)c5)c4n3)cc2F)CC1
220	7	–	–	CNCC1CCN(c2ccc(Nc3ncc4ccn(-c5cccc(NS(=O)(=O)C(C)(C)C)c5)c4n3)cc2F)CC1
166	13	–	–	Cc1cnc(Nc2ccc(N3CCN(C)CC3)cc2)nc1Nc1cccc(NS(=O)(=O)C(C)(C)C)c1 [drawing 321]
145	51	–	–	CN(C)C1CCN(Cc2ccc(Nc3ncc4ccn(-c5cccc(NS(=O)(=O)C(C)(C)C)c5)c4n3)cc2F)CC1
138	10	–	–	Cc1cnc(Nc2ccc(N3CCN(C)CC3)cc2)nc1Nc1cccc(NS(=O)(=O)C(C)(C)C)c1 [drawing 384]
131	3	–	–	CN(C)C1CCN(c2ccc(Nc3ncc4ccn(-c5cccc(NS(=O)(=O)C(C)(C)C)c5)c4n3)cc2F)CC1 [drawing 371]
